Biological target: T1, human full-length MKNK1 (Homo sapiens, UniProt Q9BUB5, T385D)
T1 construct: purchased Carna Biosciences 02-145; host or cells: insect cells, baculovirus expression system
Experiment: MKNK1 kinase high ATP assay (TR-FRET)
Assay type: biochemical
Settings: high ATP (2 mM), 15 min preincubation with enzyme, GST-MKNK1 (T344D)
How it was run: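 GST-tagged full-length human MKNK1 (aa 1-424, T344D), baculovirus-expressed, preincubated 15 min with compound, then reacted 30 min at 22 °C with 2 mM ATP and 0.06 µM biotinylated peptide (final).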

T1 sequence (Q9BUB5 1-424 isoform Q9BUB5-2 T344D): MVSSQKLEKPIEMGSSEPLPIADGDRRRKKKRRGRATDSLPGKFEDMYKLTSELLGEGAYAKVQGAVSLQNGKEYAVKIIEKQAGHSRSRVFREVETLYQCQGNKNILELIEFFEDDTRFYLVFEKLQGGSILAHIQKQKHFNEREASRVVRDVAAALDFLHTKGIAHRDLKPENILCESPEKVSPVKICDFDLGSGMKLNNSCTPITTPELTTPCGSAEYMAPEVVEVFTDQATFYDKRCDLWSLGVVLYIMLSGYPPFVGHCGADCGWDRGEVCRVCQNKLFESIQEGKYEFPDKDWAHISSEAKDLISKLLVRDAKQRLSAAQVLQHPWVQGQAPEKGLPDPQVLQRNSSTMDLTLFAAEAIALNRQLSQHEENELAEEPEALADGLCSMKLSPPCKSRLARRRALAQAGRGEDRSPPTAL

Row | SMILES | IC50 [nM]
1 | COc1ccc(C(F)(F)F)cc1Nc1ncnc2[nH]c3c(c12)CCCC3 [Example 119] | ≥ 20000
2 | FC1(F)CCc2[nH]c3ncnc(Nc4ccc5[nH]ncc5c4)c3c2C1 [Example 10, 6,6-Difluoro-N-(1H-indazol-5-yl)-6,7,8,9-tetrahydro-5H-pyrimido[4,5-b]indol-4-amine] | 24
3 | COc1cc(F)ccc1Nc1ncnc2[nH]c3c(c12)CC(C(=O)NCCCS(C)(=O)=O)CC3 (racemic) [Example 37, (RS)-4-[(4-Fluoro-2-methoxyphenyl)amino]-N-[3-(methylsulfonyl)propyl]-6,7,8,9-tetrahydro-5H-pyrimido[4,5-b]indole-6-carboxamide] | 145
4 | COc1cccc(Nc2ncnc3[nH]c4c(c23)CC(C(=O)NCCCS(C)(=O)=O)CC4)c1OC (racemic) [Example 74, (RS)-4-[(2,3-Dimethoxyphenyl)amino]-N-[3-(methylsulfonyl)propyl]-6,7,8,9-tetrahydro-5H-pyrimido[4,5-b]indole-6-carboxamide] | 1160
5 | O=S1(=O)CCc2[nH]c3ncnc(Nc4ccc5[nH]ncc5c4)c3c2C1 [Example 83, N-(1H-Indazol-5-yl)-5,7,8,9-tetrahydrothiopyrano[3′,4′:4,5]pyrrolo[2,3-d]pyrimidin-4-amine 6,6-dioxide] | 62
6 | CS(=O)(=O)CCCNC(=O)C1CCc2[nH]c3ncnc(Nc4ccc5c(c4)OC(F)(F)O5)c3c2C1 (racemic) [Example 36, (RS)-4-[(2,2-Difluoro-1,3-benzodioxol-5-yl)amino]-N-[3-(methylsulfonyl)propyl]-6,7,8,9-tetrahydro-5H-pyrimido[4,5-b]indole-6-carboxamide] | 3170
7 | CS(=O)(=O)CCCNC(=O)C1CCc2[nH]c3ncnc(Nc4ccc5c(c4)OCC(=O)N5)c3c2C1 (racemic) [Example 51, (RS)—N-[3-(Methylsulfonyl)propyl]-4-[(3-oxo-3,4-dihydro-2H-1,4-benzoxazin-7-yl)amino]-6,7,8,9-tetrahydro-5H-pyrimido[4,5-b]indole-6-carboxamide] | 370
8 | CS(=O)(=O)CCCNC(=O)C1CCc2[nH]c3ncnc(Nc4ccc5c(c4)C(=O)OC5)c3c2C1 (racemic) [Example 46, (RS)—N-[3-(Methylsulfonyl)propyl]-4-[(3-oxo-1,3-dihydro-2-benzofuran-5-yl)amino]-6,7,8,9-tetrahydro-5H-pyrimido[4,5-b]indole-6-carboxamide] | 2240
9 | CCOC(=O)C1CCc2[nH]c3ncnc(N4CCc5ccccc54)c3c2C1 (racemic) [Example 173, (RS)-Ethyl 4-(2,3-dihydro-1H-indol-1-yl)-6,7,8,9-tetrahydro-5H-pyrimido[4,5-b]indole-6-carboxylate] | 3600
10 | c1nc(Nc2ccc3[nH]ncc3c2)c2c3c([nH]c2n1)CCCCC3 [Example 3, N-(1H-Indazol-5-yl)-5,6,7,8,9,10-hexahydrocyclohepta[4,5]pyrrolo[2,3-d]pyrimidin-4-amine] | 45
11 | CS(=O)(=O)CCCNC(=O)C1CCc2[nH]c3ncnc(Nc4ccc(F)c(OC(F)(F)F)c4)c3c2C1 (racemic) [Example 43, (RS)-4-{[4-Fluoro-3-(trifluoromethoxy)phenyl]amino}-N-[3-(methylsulfonyl)propyl]-6,7,8,9-tetrahydro-5H-pyrimido[4,5-b]indole-6-carboxamide] | 782
12 | CC(C)Oc1cc(F)ccc1Nc1ncnc2c1c1c(n2C)CCC(C(=O)NCCCS(C)(=O)=O)C1 (racemic) [Example 25, (RS)-4-[(4-Fluoro-2-isopropoxyphenyl)amino]-9-methyl-N-[3-(methylsulfonyl)propyl]-6,7,8,9-tetrahydro-5H-pyrimido[4,5-b]indole-6-carboxamide] | 381
13 | CS(=O)(=O)CCCNC(=O)C1CCc2[nH]c3ncnc(Oc4ccc5[nH]ncc5c4)c3c2C1 (racemic) [Example 56, (RS)-4-(1H-Indazol-5-yloxy)-N-[3-(methylsulfonyl)propyl]-6,7,8,9-tetrahydro-5H-pyrimido[4,5-b]indole-6-carboxamide] | 226

From patent US20150133426A1, “SUBSTITUTED PYRROLOPYRIMIDINES” (BAYER PHARMA AKTIENGESELLSCHAFT, priority 2012, published 2015)
